In publication PMC5007552, “The hVps34‐SGK3 pathway alleviates sustained PI3K/Akt inhibition by stimulating mTORC1 and tumour growth” (The EMBO Journal, 2016):

How the values were obtained:
[1] = target: S6K1 (Homo sapiens, UniProt P23443); test: IC50 on recombinant S6K1 (p70S6K); format: biochemical; conditions: Fig 5B / Appendix Fig S1B, recombinant kinase, unit inferred
Protocol: (§1) The result for each kinase is presented as a mean kinase activity of the reaction taken in triplicate relative to a control reaction where the inhibitors were omitted. […] SGK3 was immunoprecipitated from cell lysates and subjected to in vitro kinase assay by measuring phosphorylation of the Crosstide substrate peptide in the presence of 0.1 mM [γ‐^32P]ATP in a 30 min 30°C reaction (upper panel). Kinase reactions are presented as means ± SD for triplicate reaction.
(§2) Appendix Figure S1. […] (A) Chemical struc tures of
(§3) Sano/f_i-14g, -14i and -14n compounds. (B) IC50 values of inhibitors on indicated recombinant k inases. […]

[2] = target: T1, SGK3 (Homo sapiens, UniProt Q96BR1); test: IC50 on recombinant SGK3; format: biochemical; conditions: recombinant kinase
T1 sequence (Q96BR1 1-496): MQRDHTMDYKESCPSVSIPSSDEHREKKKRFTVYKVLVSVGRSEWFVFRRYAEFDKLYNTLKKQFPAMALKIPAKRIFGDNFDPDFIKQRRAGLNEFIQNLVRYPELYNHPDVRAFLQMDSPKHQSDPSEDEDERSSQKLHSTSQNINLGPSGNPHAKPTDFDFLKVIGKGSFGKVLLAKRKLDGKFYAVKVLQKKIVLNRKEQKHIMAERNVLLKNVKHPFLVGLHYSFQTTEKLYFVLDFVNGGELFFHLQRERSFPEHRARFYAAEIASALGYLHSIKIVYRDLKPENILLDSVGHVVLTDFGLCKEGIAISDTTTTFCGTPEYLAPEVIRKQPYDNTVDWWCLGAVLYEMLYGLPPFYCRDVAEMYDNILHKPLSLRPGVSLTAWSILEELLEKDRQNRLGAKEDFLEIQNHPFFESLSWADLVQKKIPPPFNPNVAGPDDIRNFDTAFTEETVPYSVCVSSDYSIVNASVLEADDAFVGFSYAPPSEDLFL
Protocol: as §1, §2, §3

[3] = tested on: BT-474c cells; test: Immunoblot of mTORC1 pathway markers in BT-474c cells; format: cell-based, human; conditions: 5 days 1 μM MK-2206, then 3 μM 14h 1 h
Protocol: SGK3 (upper panel) and S6K1 (middle panel) were immunoprecipitated and subjected to in vitro kinase assay by measuring phosphorylation of the Crosstide substrate peptide in the presence of 0.1 mM [γ‐^32P]ATP in a 30 min 30°C reaction. Kinase reactions are presented as means ± SD for triplicate reaction. Immunoprecipitates (IP) were also analysed by immunoblot with the indicated antibodies. The cell lysates were subjected to immunoblot analysis using the indicated antibodies (bottom panel). Source data are available online for this figure.
HEK293 cells were purchased from the American Tissue Culture Collection (ATCC). Cells were cultured in RPMI or DMEM media supplemented with 10% (v/v) foetal bovine serum, 2 mM L‐glutamine, 100 U/ml penicillin and 0.1 mg/ml streptomycin. Inhibitor treatments were carried out as described in figure legends. During 5 days inhibitor treatments, the media was changed after 72‐h intervals. The cells were lysed in buffer containing 50 mM Tris–HCl (pH 7.5), 150 mM NaCl, 1 mM EDTA, 1 mM EGTA, 1 mM sodium orthovanadate, 10 mM sodium glycerophosphate, 10 mM sodium pyrophosphate, 0.27 M sucrose, 0.1% (v/v) 2‐mercaptoethanol, 1 mM benzamidine and 0.1 mM PMSF. Lysates were clarified by centrifugation at 16,000 g for 10 min at 4°C. Protein concentration was calculated using Bradford assay (Thermo Scientific). […]

[4] = tested on: BT-474 xenograft tumours; test: Cleaved caspase-3 immunohistochemistry of xenograft tumours; format: in vivo, mice; conditions: end of treatment, 4 h after last dosage
Protocol: Figure 8 Dual treatment with Akt and SGK inhibitors reduces tumour growth in BT‐474 xenograft model • BT‐474 cells were treated for the indicated times with 0.3 μM MK‐2206. The cell lysates were analysed by immunoblot using the indicated antibodies. • BT‐474c cells were treated with inhibitors as indicated either as monotherapy or in combination and cell confluency measured on the Incucyte ZOOM every 4 h for up to 4 weeks. • BT‐474 cells were injected subcutaneously into athymic Foxn1 ^nu nude mice. […] The tumour volume was measured twice a week. Tumour growth is represented as the fold change mean ± SEM. • All mice were weighed at the end of the treatments. […] Apoptotic cells were counted in 25 fields per condition (left panel) and quantified as clCasp3‐positive cells/field (right panel). […] Six different tumours were analysed from each treatment group and each line represents one tumour sample. […]
Experiments involving mice were in accordance with Institutional Guidelines of Memorial Sloan Kettering Cancer Center (Protocol number 12‐10‐019). […] When tumours reached a volume of ~150 mm^3, mice were randomised, treated, and tumours were measured twice a week. Tumour volume was determined using the following formula: (length × width^2) ÷ 2. […]

Sequence of S6K1 (P23443 whole entry): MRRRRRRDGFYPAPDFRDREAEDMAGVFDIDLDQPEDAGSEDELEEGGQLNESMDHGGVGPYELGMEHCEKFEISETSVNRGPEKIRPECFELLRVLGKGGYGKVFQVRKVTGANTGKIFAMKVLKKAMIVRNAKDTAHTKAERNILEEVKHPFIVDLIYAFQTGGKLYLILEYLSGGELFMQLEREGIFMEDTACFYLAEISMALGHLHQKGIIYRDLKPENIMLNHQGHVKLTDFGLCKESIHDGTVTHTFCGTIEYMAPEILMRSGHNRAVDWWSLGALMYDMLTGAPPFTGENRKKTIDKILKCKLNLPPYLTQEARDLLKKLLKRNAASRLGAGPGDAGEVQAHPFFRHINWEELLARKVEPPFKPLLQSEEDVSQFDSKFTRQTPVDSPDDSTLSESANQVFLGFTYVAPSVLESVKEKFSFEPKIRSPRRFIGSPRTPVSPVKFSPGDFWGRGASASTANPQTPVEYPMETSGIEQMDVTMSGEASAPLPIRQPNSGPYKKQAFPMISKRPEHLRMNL

IC50 [1] | IC50 [2] | Compound | phosphorylation of TSC2, S6K1 and S6 protein [3] | number of apoptotic (cleaved caspase-3 positive) cells in tumours [4]
76 nM | 4 nM | Nc1n[nH]c2nc(-c3ccc(NS(=O)(=O)c4cc(Cl)ccc4Cl)cc3)cnc12 [14h] | suppression of phosphorylation of TSC2, S6K1 and its downstream target S6 protein | 
 |  | NC1(c2ccc(-c3nc4ccn5c(=O)[nH]nc5c4cc3-c3ccccc3)cc2)CCC1 [MK-2206] |  | increased number of apoptotic cells
